# Test results as given in article PMC10671498, “Antiproliferative and Cytotoxic Properties of Propynoyl Betulin Derivatives against Human Ovarian Cancer Cells: In Vitro Studies” (International Journal of Molecular Sciences, 2023).
# Like-named read-outs stand apart in the source and are kept apart here.
# Assays:
# [1] = system: SK-OV-3 cells; assay: SRB cell proliferation assay, SK-OV-3; format: cell-based, human; details: for IC50: Homo sapiens
# Method: This study used ovarian cancer cell lines, which are part of the panel of cell lines used as part of the NCI-60 Human Cell Lines Screen program, characterized by overexpression of the c-erbB2/neu (HER2) receptor [62, 63]. The human ovarian cancer cell lines (SK-OV-3 and OVCAR-3) were purchased from the American Type Culture Collection (ATCC®, Manassas, Virginia, USA). SK-OV-3 cells (ATCC No. HTB-77™) were cultured in McCoy’s 5A medium containing D-glucose (3 g/L), L-glutamine (0.219 g/L), and sodium bicarbonate (2.2 g/L) supplemented with 10% fetal bovine serum, 10 mM HEPES (pH 7.3–7.5), 100 U/mL penicillin, and 100 μg/mL streptomycin (all from Sigma Aldrich).
# (§1) Betulin 1 and its derivatives were dissolved in dimethyl sulfoxide (DMSO; Sigma Aldrich) as a 15 mM stock solution. Working solutions were prepared through the dilution of stock solutions with culture medium. The final DMSO concentration in culture media was adjusted to 0.2%. The effect of tested compounds on the proliferation of SK-OV-3 and OVCAR-3 cells was measured using the In Vitro Toxicology Assay Kit, Sulforhodamine B based (Sigma Aldrich). Cells were seeded in 96-well plates (Greiner Bio-One, Kremsmünster, Austria) at an initial density of 3 × 10^3 cells per well in 200 µL of culture medium. After 24 h of incubation, betulin 1 and its derivatives at a concentration range of 0.1 μM to 30 μM were added to the wells. Control cultures were treated with vehicle alone (0.2% DMSO). The incubation periods for cells with test compounds were 1 day, 3 days, and 5 days. After appropriate incubation periods, culture media were removed, and cells were fixed in 10% trichloroacetic acid solution for 60 min at 4 °C. After fixation, the TCA solution was removed, and the plates were washed three times with deionized water (300 μL/well) and dried. At the next step, cells were stained with 0.4% sulforhodamine B for 30 min. The excess dye was removed by washing three times with 1% (vol/vol) acetic acid. The protein-bound dye was dissolved in 200 μL 10 mM Tris base solution. Absorbance was measured at 570 nm and 690 nm (reference wavelength) using the MRX Revelation plate reader (Dynex Technologies, Chantilly, VA, USA).
# (§2) GraphPad Prism 10.0.2 (GraphPad Software Inc., San Diego, CA, USA) software was used for calculations and the statistical analysis of the IC50 values (Table 1). IC50 was determined by using the “nonlinear regression” mode, and the “log(inhibitor) vs. normalised response—Variable slope” equation was chosen in GraphPad Prism software for calculations. The obtained data were normalized to run from 100% down to 0%, and logarithms of concentration were used. Graphs (Figure 2, Figure 3, Figure 4, Figure 5 and Figure 8, and Supplementary Figure S1) were also prepared using this software. In the case of the lack of normal distribution or homogeneity of variances, the remaining results were analyzed using a non-parametric Kruskal–Wallis test with multiple comparisons. Post hoc analysis was performed with the non-parametric equivalent of Tukey’s test. A p value of <0.05 was considered statistically significant. Otherwise, a one-way ANOVA followed by a Tukey’s post hoc test was applied. t-tests was used to perform pairwise comparisons between group means. Analysis was performed using Statistica 13.1 software (StatSoft, Tulsa, OK, USA).
# [2] = system: OVCAR-3 cells; assay: DNA fragmentation assay (Cell Death Detection ELISA, cytoplasmic fraction), OVCAR-3; format: cell-based, human; details: OVCAR-3, 24 h; for DNA fragmentation (number of mono- and oligonucleosomes): 3 µM and 10 µM
# Method: (§3) Fragmentation of genomic DNA was determined by means of the Cell Death Detection ELISAPLUS kit (Roche, Basel, Switzerland). This method rests on the immunoenzymatic detection of DNA–histone complexes in the cytoplasmic cell fraction or cell culture supernatants. Cells were plated and cultured in 96-well plates (Greiner Bio-One) at the initial density of 5 × 10^3 cells per well in 100 µL of culture medium. Cells were allowed to attach and grow for 1 day prior to the addition of test reagents. Then, the media were replaced with the working solutions (3 µM, 10 µM, 30 µM), and cells were exposed to compounds 2–6 for 24 h. In some cases, 5 µM cyclosporin A (CsA, an inhibitor of the mitochondrial permeability transition) was added to the cells 30 min before treatment with the betulin derivative. Subsequently, cells were incubated concomitantly with both compounds. After a 24 h incubation period, plates were centrifuged (200× g; 10 min), media were removed, and cells were lysed for 30 min at room temperature. At the next step, the lysates were again spun (200× g; 10 min), and 20 µL of supernatants (cytoplasmic fractions) was moved to the new 96-well streptavidin-coated plate. In one experiment, the presence of mono- and oligonucleosomes was determined in 20 µL samples of centrifuged culture supernatants (media) to detect the permeability of plasma membrane (considered as an indicator of cell necrosis). Then, the sandwich ELISA assay was fulfilled according to the manufacturer’s protocol. Absorbance was measured at 405 nm and 490 nm (reference wavelength), and the enrichment factor of the cytoplasmic (or supernatant) fraction in mono- and oligonucleosomes was calculated according to the formula: EF = absorbance of sample cells/absorbance of control cells.
# (§4) A high EF index in the cytoplasmic fraction (resulting from DNA fragmentation while maintaining the tightness of cell membranes) is a typical indicator of the relatively early stage of apoptosis.
# [3] = system: SK-OV-3 cells; assay: DNA fragmentation assay (Cell Death Detection ELISA, cytoplasmic fraction), SK-OV-3; format: cell-based, human; details: for DNA fragmentation (enrichment factor, internucleosomal DNA fragments): SK-OV-3, 24 h, 3, 10, 30 µM
# Method: as §3, §4
# [4] = system: 18Co normal myofibroblasts; assay: SRB cell proliferation assay, 18Co normal myofibroblasts; format: cell-based; details: 18Co, Neg: negative in the concentration used
# Method: Next, 18Co cells (ATCC No. CRL-1459™) were cultured in MEM medium containing HEPES buffer, 10% fetal bovine serum, 100 U/mL penicillin, and 100 μg/mL streptomycin (all from Sigma Aldrich).
# as §1, §2
# [5] = system: OVCAR-3 cells; assay: SRB cell proliferation assay, OVCAR-3; format: cell-based, human; details: for IC50: Homo sapiens
# Method: OVCAR-3 cells (ATCC No. HTB-161™) were cultured in RPMI-1640 medium containing HEPES buffer (2.383 g/L), sodium bicarbonate (1.5 g/L), sodium pyruvate (0.11 g/L) supplemented with 20% fetal bovine serum, 10 µg/mL bovine insulin, 100 U/mL penicillin, and 100 μg/mL streptomycin (all from Sigma Aldrich).
# as §1, §2
Structure (SMILES),"IC50 ([1]; 72 h, SK-OV-3, 3 days treatment, SRB assay, read-out: IC50) [nM]","IC50 ([1]; 120 h, SK-OV-3, 5 days treatment, SRB assay, read-out: IC50) [nM]",DNA fragmentation (number of mono- and oligonucleosomes) [2],DNA fragmentation (enrichment factor) ([2]; 30 µM),"DNA fragmentation (enrichment factor, internucleosomal DNA fragments) [3]",IC50 ([4]; 3 days treatment),IC50 ([4]; 5 days treatment),"IC50 ([5]; 72 h, OVCAR-3, 3 days treatment, SRB assay, read-out: IC50) [nM]","IC50 ([5]; 120 h, OVCAR-3, 5 days treatment, SRB assay, read-out: IC50) [nM]","IC50 ([1]; SK-OV-3, 72 h) [nM]","IC50 ([1]; SK-OV-3, 120 h) [nM]","concentration at which antiproliferative activity (decrease in the number of cells) was evident ([1]; SK-OV-3, SRB assay, 0.1–30 µM) [µM]","effect of CsA on compound-induced cell death, DNA fragmentation ([3]; SK-OV-3, 24 h, with 5 µM cyclosporin A added 30 min before)","IC50 ([5]; OVCAR-3, 72 h) [nM]","IC50 ([5]; OVCAR-3, 120 h) [nM]","concentration at which antiproliferative activity (decrease in the number of cells) was evident ([5]; OVCAR-3, SRB assay, 0.1–30 µM) [µM]"
"C=C(C)[C@@H]1CC[C@]2(CO)CC[C@]3(C)[C@H](CC[C@@H]4[C@@]5(C)CC[C@H](O)C(C)(C)[C@@H]5CC[C@]43C)[C@@H]12 [Compound 1, lup-20(29)-ene-3β,28-diol, reference compound]",8210,4590,comparable to the control,caused an increase in DNA fragmentation,significant increase,Neg,Neg,9030,10100,–,–,–,–,–,–,–
"C#CC(=O)OC[C@]12CC[C@@H](/C(C)=C/P(=O)(OCC)OCC)C1C1CCC3[C@@]4(C)CC[C@H](O)C(C)(C)C4CC[C@@]3(C)[C@]1(C)CC2 (some centres unmarked) [Compound 6, E-29-diethoxyphosphoryl-28-O-propynoylbetulin]",–,–,slightly smaller effect than the lowest concentration of compound 4,–,moderate increases,Neg,Neg,–,–,290,260,1,almost completely prevented,680,590,1
